Test results reported in PubChem BioAssay (NCI).
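Dose response: 5 concentrations. Exposure: 48 h. Format: 96-well plates. Endpoint: linear interpolation; highest concentration if not reached. TGI: concentration producing complete growth inhibition.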

Key:
Test in all cases: growth of human tumour cells (NCI), 48 h
A549 NSCLC = tested on: A549 NSCLC
ACHN renal = tested on: ACHN renal
COLO 205 colon = tested on: COLO 205 colon
DU-145 prostate = tested on: DU-145 prostate
EKVX NSCLC = tested on: EKVX NSCLC
HCT-116 colon = tested on: HCT-116 colon
HCT-15 colon = tested on: HCT-15 colon
HOP-62 NSCLC = tested on: HOP-62 NSCLC
HOP-92 NSCLC = tested on: HOP-92 NSCLC
HS 578T breast = tested on: HS 578T breast
HT29 colon = tested on: HT29 colon
IGROV1 ovarian = tested on: IGROV1 ovarian
LOX IMVI melanoma = tested on: LOX IMVI melanoma
M14 melanoma = tested on: M14 melanoma
MALME-3M melanoma = tested on: MALME-3M melanoma
MDA-MB-231 breast = tested on: MDA-MB-231 breast
MDA-N = tested on: MDA-N
MOLT-4 leukemia = tested on: MOLT-4 leukemia
NCI-H460 lung = tested on: NCI-H460 lung
NCI-H522 lung = tested on: NCI-H522 lung
NCI/ADR-RES ovarian = tested on: NCI/ADR-RES ovarian
OVCAR-3 ovarian = tested on: OVCAR-3 ovarian
OVCAR-4 ovarian = tested on: OVCAR-4 ovarian
OVCAR-8 ovarian = tested on: OVCAR-8 ovarian
PC-3 prostate = tested on: PC-3 prostate
SF-268 CNS = tested on: SF-268 CNS
SF-295 CNS = tested on: SF-295 CNS
SK-MEL-2 melanoma = tested on: SK-MEL-2 melanoma
SK-MEL-5 melanoma = tested on: SK-MEL-5 melanoma
SK-OV-3 ovarian = tested on: SK-OV-3 ovarian
SN12C renal = tested on: SN12C renal
SNB-75 CNS = tested on: SNB-75 CNS
SR leukemia = tested on: SR leukemia
SW-620 colon = tested on: SW-620 colon
T-47D breast = tested on: T-47D breast
UACC-257 melanoma = tested on: UACC-257 melanoma
UACC-62 melanoma = tested on: UACC-62 melanoma
786-0 renal = tested on: 786-0 renal
A498 renal = tested on: A498 renal
CAKI-1 renal = tested on: CAKI-1 renal
CCRF-CEM leukemia = tested on: CCRF-CEM leukemia
HCC-2998 colon = tested on: HCC-2998 colon
K-562 leukemia = tested on: K-562 leukemia
KM12 colon = tested on: KM12 colon
MCF7 breast = tested on: MCF7 breast
MDA-MB-435 = tested on: MDA-MB-435
NCI-H226 lung = tested on: NCI-H226 lung
NCI-H23 lung = tested on: NCI-H23 lung
OVCAR-5 ovarian = tested on: OVCAR-5 ovarian
RPMI-8226 leukemia = tested on: RPMI-8226 leukemia
RXF 393 renal = tested on: RXF 393 renal
SF-539 CNS = tested on: SF-539 CNS
TK-10 renal = tested on: TK-10 renal
UO-31 renal = tested on: UO-31 renal
HL-60(TB) leukemia = tested on: HL-60(TB) leukemia
SK-MEL-28 melanoma = tested on: SK-MEL-28 melanoma
SNB-19 CNS = tested on: SNB-19 CNS
U251 CNS = tested on: U251 CNS

Measured: TGI

CC(C)c1cc(C(C)C)c(B(c2ccccc2)c2ccccc2)c(C(C)C)c1B(c1ccccc1)c1ccccc1
not listed: 786-0 renal | A498 renal | CAKI-1 renal | CCRF-CEM leukemia | HCC-2998 colon | K-562 leukemia | KM12 colon | MCF7 breast | MDA-MB-435 | NCI-H226 lung | NCI-H23 lung | OVCAR-5 ovarian | RPMI-8226 leukemia | RXF 393 renal | SF-539 CNS | TK-10 renal | UO-31 renal | HL-60(TB) leukemia | SK-MEL-28 melanoma | SNB-19 CNS | U251 CNS
> 100 µM: all other assays above

CC(C)N1[C@@H]2CCCC[C@H]2N(C(C)C)[P+]1=O
not listed: IGROV1 ovarian | LOX IMVI melanoma | MALME-3M melanoma | MDA-MB-231 breast | OVCAR-4 ovarian | PC-3 prostate | SK-MEL-2 melanoma | HL-60(TB) leukemia | SK-MEL-28 melanoma | SNB-19 CNS | U251 CNS
> 100 µM: all other assays above

CC(C)=C=CP(=O)(O)c1ccccc1
not listed: MDA-MB-231 breast | MOLT-4 leukemia | CCRF-CEM leukemia | RPMI-8226 leukemia | RXF 393 renal | UO-31 renal
> 100 µM: all other assays above

O=NNc1c[nH]c(=O)[nH]c1=O
not listed: HS 578T breast | HT29 colon | NCI-H460 lung | SF-268 CNS | SR leukemia | OVCAR-5 ovarian
> 100 µM: all other assays above
